Key:
[1] = Therapeutic index, ratio of IC50 for human H9 cells to EC50 for HIV1; assay type: cell-based; details: for pTI: h9
[2] = test system: Human immunodeficiency virus 1; test: Antiviral activity against Human immunodeficiency virus 1 infected human H9 cells assessed as inhibition of viral replication; assay type: functional, organism-based; details: Human immunodeficiency virus 1, H9

| Compound | pTI [1] | EC50 ([2]; read-out: pEC50 (converted)) [µM] | selectivity ratio ([1]; H9 cells, read-out: Ratio IC50/EC50) | EC50 ([2]; read-out: EC50) [µM] |
| --- | --- | --- | --- | --- |
| C=C(C)[C@@H]1CC[C@]2(C(=O)O)CC[C@]3(C)[C@H](CC[C@@H]4[C@@]5(C)CC[C@H](OC(=O)CCCC(=O)O)C(C)(C)[C@@H]5CC[C@]43C)[C@@H]12 | -2.465 | 0.044 | – | – |
| CC(C)[C@@H]1CC[C@]2(C(=O)OCc3ccccc3)CC[C@]3(C)[C@H](CC[C@@H]4[C@@]5(C)CC[C@H](O)C(C)(C)[C@@H]5CC[C@]43C)[C@@H]12 | -0.255 | 100 | – | – |
| CC(C)[C@@H]1CC[C@]2(C(=O)OC(=O)N3CCOCC3)CC[C@]3(C)[C@H](CC[C@@H]4[C@@]5(C)CC[C@H](O)C(C)(C)[C@@H]5CC[C@]43C)[C@@H]12 | -0.114 | 26 | – | – |
| CC(C)[C@@H]1CC[C@]2(C(=O)O)CC[C@]3(C)[C@H](CC[C@@H]4[C@@]5(C)CC[C@H](OC(=O)CCCC(=O)O)C(C)(C)[C@@H]5CC[C@]43C)[C@@H]12 | -0.875 | 1.8 | – | – |
| CC(C)[C@@H]1CC[C@]2(C(=O)O)CC[C@]3(C)[C@H](CC[C@@H]4[C@@]5(C)CC[C@H](OC(=O)C67CCC(C)(C(=O)O6)C7(C)C)C(C)(C)[C@@H]5CC[C@]43C)[C@@H]12 (some centres undefined) | -0.301 | 0.5 | – | – |
| CC(C)CC(=O)O[C@H]1CC[C@]2(C)[C@H]3CC[C@@H]4[C@H]5[C@H](C(C)C)CC[C@]5(C(=O)O)CC[C@@]4(C)[C@]3(C)CC[C@H]2C1(C)C | -1.748 | 1.5 | – | – |
| CC(C)[C@@H]1CC[C@]2(C(=O)OCc3ccccc3)CC[C@]3(C)[C@H](CC[C@@H]4[C@@]5(C)CC[C@H](OC(=O)CC(C)(C)C(=O)O)C(C)(C)[C@@H]5CC[C@]43C)[C@@H]12 | -1.748 | 0.23 | – | – |
| CC(C)[C@@H]1CC[C@]2(C(=O)OCc3ccccc3)CC[C@]3(C)[C@H](CC[C@@H]4[C@@]5(C)CC[C@H](OC(=O)CCCC(=O)O)C(C)(C)[C@@H]5CC[C@]43C)[C@@H]12 | -1.279 | 0.5 | – | – |
| C=C(C)[C@@H]1CC[C@]2(C(=O)OC(=O)N3CCOCC3)CC[C@]3(C)[C@H](CC[C@@H]4[C@@]5(C)CC[C@H](O)C(C)(C)[C@@H]5CC[C@]43C)[C@@H]12 | -0.556 | 3.2 | – | – |
| C=C(C)[C@@H]1CC[C@]2(C(=O)O)CC[C@]3(C)[C@H](CC[C@@H]4[C@@]5(C)CC[C@H](OC(=O)COCC(=O)O)C(C)(C)[C@@H]5CC[C@]43C)[C@@H]12 | -3.069 | 0.01 | – | – |
| CC(C)[C@@H]1CC[C@]2(C(=O)O)CC[C@]3(C)[C@H](CC[C@@H]4[C@@]5(C)CC[C@H](OC(=O)CC(C)(C)C(=O)O)C(C)(C)[C@@H]5CC[C@]43C)[C@@H]12 | -4.146 | 0.0003 | – | – |
| CC(C)[C@@H]1CC[C@]2(C(=O)O)CC[C@]3(C)[C@H](CC[C@@H]4[C@@]5(C)CC[C@H](OC(=O)C(C)(C)CC(=O)O)C(C)(C)[C@@H]5CC[C@]43C)[C@@H]12 | -1.14 | 0.56 | – | – |
| CC(C)[C@@H]1CC[C@]2(C(=O)O)CC[C@]3(C)[C@H](CC[C@@H]4[C@@]5(C)CC[C@H](OC(=O)COCC(=O)O)C(C)(C)[C@@H]5CC[C@]43C)[C@@H]12 | -3.37 | 0.0056 | – | – |
| CC(C)[C@@H]1CC[C@]2(C(=O)O)CC[C@]3(C)[C@H](CC[C@@H]4[C@@]5(C)CC[C@H](OC(=O)CC(C)(C)CC(=O)O)C(C)(C)[C@@H]5CC[C@]43C)[C@@H]12 | -3.007 | 0.0057 | – | – |
| C=C(C)[C@@H]1CC[C@]2(C(=O)O)CC[C@]3(C)[C@H](CC[C@@H]4[C@@]5(C)CC[C@H](OC(=O)C(C)(C)CC(=O)O)C(C)(C)[C@@H]5CC[C@]43C)[C@@H]12 | -0.826 | 2.7 | – | – |
| C=C(C)[C@@H]1CC[C@]2(C(=O)O)CC[C@]3(C)[C@H](CC[C@@H]4[C@@]5(C)CC[C@H](O)C(C)(C)[C@@H]5CC[C@]43C)[C@@H]12 (stereo in doubt; 8) [BETULINIC ACID] | -1.146 | 0.899 | – | – |
| C=C(C)[C@@H]1CC[C@]2(CO)CC[C@]3(C)[C@H](CC[C@@H]4[C@@]5(C)CC[C@@H](O)C(C)(C)[C@@H]5CC[C@]43C)[C@@H]12 [3-EPI-BETULIN] | -0.532 | 3.62 | – | – |
| C=C(CO)[C@@H]1CC[C@]2(CO)CC[C@]3(C)[C@H](CC[C@@H]4[C@@]5(C)CC[C@H](O)C(C)(C)[C@@H]5CC[C@]43C)[C@@H]12 [30-HYDROXY-BETULIN] | -0.447 | 50.8 | – | – |
| C=C(C)[C@@H]1CC[C@]2(COC(C)=O)CC[C@]3(C)[C@H](CC[C@@H]4[C@@]5(C)CC[C@H](OC(C)=O)C(C)(C)[C@@H]5CC[C@]43C)[C@@H]12 [BETULIN DIACETATE] | 0 | 190 | – | – |
| C=C(C)[C@@H]1CC[C@]2(/C=N/O)CC[C@]3(C)[C@H](CC[C@@H]4[C@@]5(C)CC/C(=N\O)C(C)(C)[C@@H]5CC[C@]43C)[C@@H]12 [BETULIN-3,28-DIOXIME] | -0.708 | 1.07 | – | – |
| C=C(C)[C@@H]1CC[C@]2(C(=O)O)CC[C@]3(C)[C@H](CC[C@@H]4[C@@]5(C)CC[C@H](OC(=O)CC(C)(C)C(=O)O)C(C)(C)[C@@H]5CC[C@]43C)[C@@H]12 [BEVIRIMAT] | -4.301 | 0.0003 | 20000 | 0.00035 |

— ChEMBL document CHEMBL3046569 (Med Chem Res, 2011)
